Data on 31 molecules can be found in US9416111B2, “Substituted diazine and triazine spleen tyrosine kinease (Syk) inhibitors” (Merck Sharp & Dohme Corp., priority 2012, dated 2016).

pIC50: −log10 of the molar value. Read-outs that look alike come from different tables or passages of the source.

This test has as its target T1, recombinant human GST-SYK (Homo sapiens, UniProt P43405).
T1 construct: purchased Carna Biosciences 08-176
Description: Homogeneous Time-Resolved Fluorescence (HTRF) assay for the recombinant human Syk enzyme. The following applies: GST-hSYK 5 pM, ATP 25 μM. The class given is biochemical. As to the method:
Homogeneous Time-Resolved Fluorescence (HTRF) Assay for the Recombinant Human Syk Enzyme
A recombinant GST-hSYK fusion protein was used to measure potency of compounds to inhibit human Syk activity. The recombinant human GST-SYK (Carna Biosciences #08-176) (5 pM final concentration) was incubated with various concentrations of the inhibitor diluted in DMSO (0.1% final concentration) for 10 minutes at room temperature in 15 mM Tris-HCl (pH 7.5), 0.01% tween 20, 2 mM DTT in 384 well plate format. To initiate the reaction the biotinylated substrate peptide (250 nM final concentration) that contains the phosphorylation site for Syk was added with magnesium (5 mM final concentration) and ATP (25 μM final concentration). Final volume of the reaction was 10 μL. Phosphorylation of the peptide was allowed to proceed for 45′ at room temperature. To quench the reaction and detect the phosphorylated product, 2 nM of a Europium-anti-phosphotyrosine antibody (Perkin Elmer #AD0161) and 70 nM SA-APC (Perkin-Elmer #CR130-100) were added together in 15 mM Tris pH 7.5, 40 mM EDTA, 0.01% tween 20. Final volume of the quenching solution was 10 μL. The resulting HTRF signal was measured after 30 minutes on an EnVision (Perkin-Elmer) reader using a time-resolved fluorescence protocol.

[1] abbreviates: IC50 rated in classes, read-out: rhSYK Activity.

In the case of `Cc1cc(Nc2nccc(C(F)(F)F)n2)cc(-c2cncnc2)c1` [Example 1.1, N-(3-methyl-5-pyrimidin-5-ylphenyl)-4-(trifluoromethyl)pyrimidin-2-amine], the pIC50 was over 7.00 under setting [1] and 7.18 (values in text, read-out: IC50). In the case of `COc1ncc(-c2cc(C)cc(Nc3nccc(C(F)(F)F)n3)c2)cn1` [Example 1.2, N-[3-(2-methoxypyrimidin-5-yl)-5-methylphenyl]-4-(trifluoromethyl)pyrimidin-2-amine], the pIC50 under setting [1] was over 7.00. Still for that read-out and setting: under `Cc1cc(Nc2nccc(C(F)(F)F)n2)cc(-c2cnc(N)nc2)c1` [Example 1.3, N-[3-(2-aminopyrimidin-5-yl)-5-methylphenyl]-4-(trifluoromethyl)pyrimidin-2-amine] stands over 7.00; under `COCCNc1ncc(-c2cc(C)cc(Nc3nccc(C(F)(F)F)n3)c2)cn1` [Example 1.4, N-(3-{2-[(2-methoxyethyl)amino]pyrimidin-5-yl}-5-methylphenyl)-4-(trifluoromethyl)pyrimidin-2-amine], over 7.00. Take `COc1ccnc(Nc2cc(C)cc(-c3cnc(CCC(=O)O)nc3)c2)n1` [Example 1.5, 3-(5-{3-[(4-methoxypyrimidin-2-yl)amino]-5-methylphenyl}pyrimidin-2-yl)propanoic acid]: under setting [1], the pIC50 is over 7.00. On the same count and under the same terms, the value for `CCOC(=O)CCc1ncc(-c2cc(C)cc(Nc3nccc(C4CC4)n3)c2)cn1` [Example 1.6, ethyl 3-(5-{3-[(4-cyclopropylpyrimidin-2-yl)amino]-5-methylphenyl}pyrimidin-2-yl)pronanoate] was over 7.00; that for `CCOC(=O)CCc1ncc(-c2cc(C)cc(Nc3nccc(C)n3)c2)cn1` [Example 1.7, ethyl 3-(5-{3-methyl-5-[(4-methylpyrimidin-2-yl)amino]phenyl}pyrimidin-2-yl)propanoate] was 6.00 to 7.00. On to `Cc1cc(Nc2nccc(C(F)(F)F)n2)cc(-c2cnc(NC(C)(CO)CO)nc2)c1` [Example 2.1, 2-methyl-2-{[5-(3-methyl-5-{[4-(trifluoromethyl)pyrimidin-2-yl]amino}phenyl)pyrimidin-2-yl]amino}propane-1,3-diol], for which the pIC50 is, setting by setting: under setting [1], over 7.00; (values in text, read-out: IC50) 7.76. Consider `Cc1cc(Nc2nccc(C(F)(F)F)n2)cc(-c2cnc(NC(C)(C)C(=O)O)nc2)c1` [Example 2.2, 2-methyl-N-[5-(3-methyl-5-{[4-(trifluoromethyl)pyrimidin-2-yl]amino}phenyl)pyrimidin-2-yl]alanine], for which the pIC50 under setting [1] was over 7.00. On the same count and under the same terms, under `Cc1cc(Nc2nccc(C(F)(F)F)n2)cc(-c2cnc(NC3(C(=O)O)CC3)nc2)c1` [Example 2.3, 1-{[5-(3-methyl-5-{[4-(trifluoromethyl)pyrimidin-2-yl]amino}phenyl)pyrimidin-2-yl]amino}cyclopropanecarboxylic acid] stands over 7.00. Same read-out and setting: the value for `Cc1cc(Nc2nccc(C(F)(F)F)n2)cc(-c2cnc(NC3(C(=O)O)CCC3)nc2)c1` [Example 2.4, l-{[5-(3-methyl-5-{[4-(trifluoromethyl)pyrimidin-2-yl]amino}phenyl)pyrimidin-2-yl]amino}cyclobutanecarboxylic acid] was over 7.00; that for `Cc1cc(Nc2nccc(C(F)(F)F)n2)cc(-c2cnc(N3CCC[C@H]3C(=O)O)nc2)c1` [Example 2.5, 1-[5-(3-methyl-5-{[4-(trifluoromethyl)pyrimidin-2-yl]amino}phenyl)pyrimidin-2-yl]-L-proline] was over 7.00; that for `Cc1cc(Nc2nccc(C(F)(F)F)n2)cc(-c2cnc(N3CC[C@H]3C(=O)O)nc2)c1` [Example 2.6, (2S)-l-[5-(3-methyl-5-{[4-(trifluoromethyl)pyrimidin-2-yl]amino}phenyl)pyrimidin-2-yl]azetidine-2-carboxylic acid] was over 7.00. On the same count and under the same terms, the value for `Cc1cc(Nc2nccc(C(F)(F)F)n2)cc(-c2cnc(NC3CCNC3=O)nc2)c1` (stereo not drawn) [Example 2.7, 3-{[5-(3-methyl-5-{[4-(trifluoromethyl)pyrimidin-2-yl]amino}phenyl)pyrimidin-2-yl]amino}pyrrolidin-2-one] was over 7.00; that for `Cc1cc(Nc2nccc(C(F)(F)F)n2)cc(-c2cnc(NCCC(=O)O)nc2)c1` [Example 2.8, N-[5-(3-methyl-5-{[4-(trifluoromethyl)pyrimidin-2-yl]amino}phenyl)pyrimidin-2-yl]-beta-alanine] was over 7.00; that for `Cc1cc(Nc2nccc(C(F)(F)F)n2)cc(-c2cnc(N(C)[C@@H](C)C(=O)O)nc2)c1` [Example 2.9, N-methyl-N-[5-(3-methyl-5-{[4-(trifluoromethyl)pyrimidin-2-yl]amino}phenyl)pyrimidin-2-yl]-L-alanine] was over 7.00. Turning to `Cc1cc(Nc2nccc(C(F)(F)F)n2)cc(-c2cnc(N3CCC(O)C3)nc2)c1` (stereo not drawn) [Example 2.10, l-[5-(3-methyl-5-{[4-(trifluoromethyl)pyrimidin-2-yl]amino}phenyl)pyrimidin-2-yl]pyrrolidin-3-ol], under setting [1], the pIC50 is over 7.00. Still for that read-out and setting: under `Cc1cc(Nc2nccc(C(F)(F)F)n2)cc(-c2cnc(NCCCC(=O)O)nc2)c1` [Example 2.11, 4-{[5-(3-methyl-5-{[4-(trifluoromethyl)pyrimidin-2-yl]amino}phenyl)pyrimidin-2-yl]amino}butanoic acid] stands over 7.00; under `Cc1cc(Nc2nccc(C(F)(F)F)n2)cc(-c2cnc(NCC(=O)O)nc2)c1` [Example 2.12, N-[5-(3-methyl-5-{[4-(trifluoromethyl)pyrimidin-2-yl]amino}phenyl)pyrimidin-2-yl]glycine], over 7.00; under `Cc1cc(Nc2nccc(C(F)(F)F)n2)cc(-c2cnc(NCC(O)CO)nc2)c1` (stereo not drawn) [Example 2.13, 3-{[5-(3-methyl-5-{[4-(trifluoromethyl)pyrimidin-2-yl]amino}phenyl)pyrimidin-2-yl]amino}propane-1,2-diol], over 7.00. As to `CCC[C@H](Nc1ncc(-c2cc(C)cc(Nc3nccc(C(F)(F)F)n3)c2)cn1)C(=O)O` [Example 2.14, N-[5-(3-methyl-5-{[4-(trifluoromethyl)pyrimidin-2-yl]amino}phenyl)pyrimidin-2-yl]-L-norvaline], the pIC50 under setting [1] was over 7.00. On the same count and under the same terms, the value for `Cc1cc(Nc2nccc(C(F)(F)F)n2)cc(-c2cnc(NCC(O)C(F)F)nc2)c1` (stereo not drawn) [Example 2.15, 1,1-difluoro-3-{[5-(3-methyl-5-{[4-(trifluoromethyl)pyrimidin-2-yl]amino}phenyl)pyrimidin-2-yl]amino}propan-2-ol] was over 7.00; that for `Cc1cc(Nc2nccc(C(F)(F)F)n2)cc(-c2cnc(NC3CCS(=O)(=O)C3)nc2)c1` (stereo not drawn) [Example 2.16, N-(3-{2-[(1,1-dioxidotetrahydrothiophen-3-yl)amino]pyrimidin-5-yl}-5-methylphenyl)-4-(trifluoromethyl)pyrimidin-2-] was over 7.00. The same measure, in the same setting: the value for `Cc1cc(Nc2nccc(C(F)(F)F)n2)cc(-c2cnc(NCc3cnn(C)c3)nc2)c1` [Example 2.17, N-[3-methyl-5-(2-{[(1-methyl-1H-pyrazol-4-yl)methyl]amino}pyrimidin-5-yl)phenyl]-4-(trifluoromethyl)pyrimidin-2-amine] was over 7.00; that for `Cc1cc(Nc2nccc(C(F)(F)F)n2)cc(-c2cnc(NC3CCOC3)nc2)c1` (stereo not drawn) [Example 2.18, N-{3-methyl-5-[2-(tetrahydrofuran-3-ylamino)pyrimidin-5-yl]phenyl}-4-(trifluoromethyl)pyrimidin-2-amine] was over 7.00. The same measure, in the same setting: the value for `Cc1cc(Nc2nccc(C(F)(F)F)n2)cc(-c2cnc(NCC3COCCO3)nc2)c1` (stereo not drawn) [Example 2.19, N-(3-{2-[(1,4-dioxan-2-ylmethyl)amino]pyrimidin-5-yl}-5-methylphenyl)-4-(trifluoromethyl)pyrimidin-2-amine] was over 7.00; that for `Cc1cc(Nc2nccc(C(F)(F)F)n2)cc(-c2cnc(N3CCS(=O)(=O)CC3)nc2)c1` [Example 2.20, N-{3-[2-(1,1-dioxidothiomorpholin-4-yl)pyrimidin-5-yl]-5-methylphenyl}-4-(trifluoromethyl)pyrimidin-2-amine] was over 7.00. For the molecule `Cc1cc(Nc2nccc(C(F)(F)F)n2)cc(-c2cnc(NC(C)c3ccccn3)nc2)c1` (stereo not drawn) [Example 2.21, N-(3-methyl-5-{2-[(1-pyridin-2-ylethyl)amino]pyrimidin-5-yl}phenyl)-4-(trifluoromethyl)pyrimidin-2-amine], the pIC50 under setting [1] is over 7.00. The same measure, in the same setting: the value for `Cc1cc(Nc2nccc(C(F)(F)F)n2)cc(-c2cnc(NCC3CCC(=O)N3)nc2)c1` (stereo not drawn) [Example 2.22, 5-({[5-(3-methyl-5-{[4-(trifluoromethyl)pyrimidin-2-yl]amino}phenyl)pyrimidin-2-yl]amino}methyl)pyrrolidin-2-one] was over 7.00; that for `Cc1cc(Nc2nccc(C(F)(F)F)n2)cc(-c2cnc(N3CCOC(CCO)C3)nc2)c1` (stereo not drawn) [Example 2.23, 2-{4-[5-(3-methyl-5-{[4-(trifluoromethyl)pyrimidin-2-yl]amino}phenyl)pyrimidin-2-yl]morpholin-2-yl}ethanol] was 6.00 to 7.00; that for `Cc1cc(Nc2nccc(C(F)(F)F)n2)cc(-c2cnc(N3CCC(=O)N(C)CC3)nc2)c1` [Example 2.24, 4-methyl-1-[5-(3-methyl-5-{[4-(trifluoromethyl)pyrimidin-2-yl]amino}phenyl)pyrimidin-2-yl]-1,4-diazepan-5-one] was over 7.00.
